Measurements as given in US20140005214A1, “PIPERIDINONE CARBOXAMIDE SPIROHYDANTOIN CGRP RECEPTOR ANTAGONISTS” (priority 2011, published 2014).

Target: T1, recombinant human CL receptor/RAMP1 (Homo sapiens, UniProt O60894+Q16602)
T1 construct: expressed in transfected cells; membranes
Assay: Recombinant receptor binding assay (125I-hCGRP)
Settings: membranes of HEK 293 cells expressing recombinant human CL receptor/RAMP1; 10 pM 125I-hCGRP
Description: RECOMBINANT RECEPTOR: Human CL receptor (Genbank accession number L76380) was subcloned into the expression vector pIREShyg2 (BD Biosciences Clontech) as a 5′NheI and 3′ PmeI fragment. Human RAMP1 (Genbank accession number AJ001014) was subcloned into the expression vector pIRESpuro2 (BD Biosciences Clontech) as a 5′NheI and 3′NotI fragment. HEK 293 cells (human embryonic kidney cells; ATCC #CRL-1573) were cultured in DMEM with 4.5 g/L glucose, 1 mM sodium pyruvate and 2 mM glutamine supplemented with 10% fetal bovine serum (FBS), 100 units/mL penicillin and 100 μg/mL streptomycin, and maintained at 37° C. and 95% humidity. Cells were subcultured by treatment with 0.25% trypsin with 0.1% EDTA in HBSS. Stable cell line generation was accomplished by co-transfecting 10 μg of DNA with 30 μg Lipofectamine 2000 (Invitrogen) in 75 cm^2 flasks. CL receptor and RAMP1 expression constructs were co-transfected in equal amounts. Twenty-four hours after transfection the cells were diluted and selective medium (growth medium+[…] hygromycin and 1 μg/mL puromycin) was added the following day. A clonal cell line was generated by single cell deposition utilizing a FACS Vantage SE (Becton Dickinson). Growth medium was adjusted to 150 μg/mL hygromycin and 0.5 μg/mL puromycin for cell propagation.
RECOMBINANT RECEPTOR BINDING ASSAY: Cells expressing recombinant human CL receptor/RAMP1 were washed with PBS and harvested in harvest buffer containing 50 mM HEPES, 1 mM EDTA and Complete™ protease inhibitors (Roche). The cell suspension was disrupted with a laboratory homogenizer and centrifuged at 48,000 g to isolate membranes. The pellets were resuspended in harvest buffer plus 250 mM sucrose and stored at −70° C. For binding assays, 20 μg of membranes were incubated in 1 mL binding buffer (10 mM HEPES, pH 7.4, 5 mM MgCl2, and 0.2% BSA) for 3 h at room temperature containing 10 pM ^125I-hCGRP (GE Healthcare) and antagonist. The assay was terminated by filtration through 96-well GFB glass fiber filter plates (PerkinElmer) that had been blocked with 0.05% polyethyleneimine. The filters were washed 3 times with ice-cold assay buffer (10 mM HEPES, pH 7.4, and 5 mM MgCl2). Scintillation fluid was added and the plates were counted on a Topcount (Packard). Non-specific binding was determined and the data analysis was carried out with the apparent dissociation constant (Ki) determined by using a non-linear least squares fitting the bound CPM data to the equation below: […]
Where Y is observed CPM bound, Ymax is total bound counts, Ymin is non specific bound counts, (Ymax−Ymin) is specific bound counts, % Imax is the maximum percent inhibition, % I min is the minimum percent inhibition, radiolabel is the probe, and the Kd is the apparent dissociation constant for the radioligand for the receptor as determined by hot saturation experiments.

T1 sequence (Q16602 23-461): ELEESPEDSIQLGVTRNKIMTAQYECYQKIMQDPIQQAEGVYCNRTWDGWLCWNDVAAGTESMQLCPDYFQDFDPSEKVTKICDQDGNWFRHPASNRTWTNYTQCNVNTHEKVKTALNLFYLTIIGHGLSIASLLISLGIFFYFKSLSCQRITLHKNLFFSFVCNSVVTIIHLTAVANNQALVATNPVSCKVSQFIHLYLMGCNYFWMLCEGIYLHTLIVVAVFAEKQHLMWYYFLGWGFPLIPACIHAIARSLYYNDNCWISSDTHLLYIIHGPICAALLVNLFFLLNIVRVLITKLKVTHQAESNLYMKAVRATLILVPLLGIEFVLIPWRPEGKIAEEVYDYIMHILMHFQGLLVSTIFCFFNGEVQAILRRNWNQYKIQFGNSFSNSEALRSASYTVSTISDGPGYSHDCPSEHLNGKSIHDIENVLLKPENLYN
T1 sequence (O60894 27-148): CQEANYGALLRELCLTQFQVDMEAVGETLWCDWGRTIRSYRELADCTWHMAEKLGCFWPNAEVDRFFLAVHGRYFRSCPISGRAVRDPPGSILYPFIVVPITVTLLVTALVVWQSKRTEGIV

Structure (SMILES)	Ki [pM]
C[C@@H]1[C@H](c2c(F)ccc(F)c2F)C[C@H](NC(=O)c2ccc3c(c2)C[C@@]2(C3)C(=O)NC(=O)N2C)C(=O)N1CC(F)(F)F [Example 2]	48
Cc1cccc([C@@H]2C[C@H](NC(=O)c3ccc4c(c3)C[C@@]3(C4)C(=O)NC(=O)N3C)C(=O)N(CC(F)(F)F)[C@@H]2C)c1 [Example 6]	1800
C[C@@H]1[C@H](c2c(F)c(F)cc(F)c2F)C[C@H](NC(=O)c2ccc3c(c2)C[C@@]2(C3)C(=O)NC(=O)N2C)C(=O)N1CC(F)(F)F [Example 4]	36
C[C@@H]1[C@H](c2cc(F)cc(F)c2F)C[C@H](NC(=O)c2ccc3c(c2)C[C@@]2(C3)C(=O)NC(=O)N2C)C(=O)N1CC(F)(F)F [Example 1, (4S)-3-Methyl-N-[(3S,5S,6R)-6-methyl-2-oxo-1-(2,2,2-trifluoroethyl)-5-(2,3,5-trifluorophenyl)piperidin-3-yl]-2,5-dioxo-1′,3′-dihydrospiro[imidazolidine-4,2′-indene]-5′-carboxamide]	42
Cc1c(F)cccc1[C@@H]1C[C@H](NC(=O)c2ccc3c(c2)C[C@@]2(C3)C(=O)NC(=O)N2C)C(=O)N(CC(F)(F)F)[C@@H]1C [Example 7]	500

Further lines, results first:

Ki [pM]	Structure (SMILES)
1900	Cc1ccccc1[C@@H]1C[C@H](NC(=O)c2ccc3c(c2)C[C@@]2(C3)C(=O)NC(=O)N2C)C(=O)N(CC(F)(F)F)[C@@H]1C [Example 5]
360	C[C@@H]1[C@H](c2ccccc2)C[C@H](NC(=O)c2ccc3c(c2)C[C@@]2(C3)C(=O)NC(=O)N2C)C(=O)N1CC(F)(F)F [Example 3]
